Values joined by “and” are separate entries in the source; they are usually repeats but may differ in a detail not shown here. Equal entries are not always repeated.
Assays:
[1] = system: HER2 overexpressing cells (SK-BR-3, BT-474, N87); experiment: Drug combinations with PB4188 in vitro (isobolograms); format: cell-based, human; conditions: in the presence of HRG, matrigel or HRG stress concentrations
Experimental: Moreover, combination with chemotherapeutic drugs and cyclin inhibitors were tested. Combinations were tested on HER2 overexpressing cells growing in the presence of HRG in matrigel (SK-BR-3 and BT-474) or in the presence of HRG stress concentrations (N87 and SK-BR-3 as described in proliferation assays). The inhibitory effect of drug combinations was tested by imaging or by measuring proliferation using Alamar Blue as described herein before. […] The extent of growth inhibition obtained with each combination was calculated. […] The inhibition values of the combination experiments were used by CHALICE™ Analyzer software to generate the isobolograms.

[2] = system: intracranial ST1360B PDX tumors; experiment: Intracranial ST1360B PDX tumor model; format: in vivo, mouse
Experimental: The viability of total cells was greater than 80%. […] The cells were kept on ice until inoculation.
Drugs were diluted in sterile saline before each dosing. […] The dosing volume was 5.0 mL/kg.
The fixative: tissue ratio was at least 20:1.
Image analysis was performed using Horos.

[3] = compared to vehicle treated mice

NC1(c2ccc(-c3nc4ccn5c(=O)[nH]nc5c4cc3-c3ccccc3)cc2)CCC1 [MK-2206]
drug combination with PB4188 (isobologram analysis) [1]: synergistic

CC(=O)O[C@H]1C(=O)[C@@]2(C)[C@H]([C@H](OC(=O)c3ccccc3)[C@]3(O)C[C@H](OC(=O)[C@H](O)[C@@H](NC(=O)c4ccccc4)c4ccccc4)C(C)=C1C3(C)C)[C@]1(OC(C)=O)CO[C@@H]1C[C@@H]2O [paclitaxel]
drug combination with PB4188 (isobologram analysis) [1]: synergistic

trastuzumab-emtansine [T-DM1, reference compound]
tumor growth by T2-weighted MRI [2, 3]: Tumor growth was inhibited | mean tumor volume 10 days post therapy ([2]; compared to vehicle treated mice, p<0.05): significantly smaller

CS(=O)(=O)CCNCc1ccc(-c2ccc3ncnc(Nc4ccc(OCc5cccc(F)c5)c(Cl)c4)c3c2)o1 [lapatinib]
drug combination with PB4188 (isobologram analysis) [1]: synergistic

O=C(CCCCCCC(=O)Nc1ccccc1)NO [vorinostat]
drug combination with PB4188 (isobologram analysis) [1]: synergistic

MCLA-128: bispecific antibody MCLA-128 directed against HER2 and HER3
Brain edema score day 3 ([2]; MRI, scale 0-4 (0 no, 4 massive brain edema), individual mice, day 3 post initiation of therapy): 2 (2×) and 0 (2×) and 1 (4×) | Brain edema score day 7 ([2]; MRI, scale 0-4, individual mice, day 7): 2 (4×) and 0 (2×) and 3 and 1 | Brain edema score day 10 ([2]; MRI, scale 0-4, individual mice, day 10): 2 (4×) and 0 (2×) and 3 and 1 | Brain edema score day 14 ([2]; MRI, scale 0-4, individual mice, day 14): 1 (4×) and 0 and 3 (3×) | Brain edema score day 21 ([2]; MRI, scale 0-4, individual mice, day 21): 2 (2×) and 1 (3×) and 3 (3×) | Brain edema score day 28 ([2]; MRI, scale 0-4, individual mice, day 28): 3 (4×) and 4 | Brain edema score day 35 ([2]; MRI, scale 0-4, individual mice, day 35): 3 | Brain edema score day 42 ([2]; MRI, scale 0-4, individual mice, day 42): 3 | Brain edema final score ([2]; MRI, scale 0-4, individual mice, last MR scan): 3 (4×) and 1 (3×) and 4 | tumor growth by T2-weighted MRI [2, 3]: tumor growth delay | median survival ([2]; post therapy initiation, T-DM1 10 mg/kg qwk, MCLA-128 25 mg/kg twice wk, i.v., vehicle 13 days): 29 days

Cc1nc(NC(=O)N2CCC[C@H]2C(N)=O)sc1-c1ccnc(C(C)(C)C(F)(F)F)c1 [BYL719]
drug combination with PB4188 (isobologram analysis) [1]: synergistic

CO[C@H]1C[C@@H]2CC[C@@H](C)[C@@](O)(O2)C(=O)C(=O)N2CCCC[C@H]2C(=O)O[C@H]([C@H](C)C[C@@H]2CC[C@@H](OCCO)[C@H](OC)C2)CC(=O)[C@H](C)/C=C(\C)[C@@H](O)[C@@H](OC)C(=O)[C@H](C)C[C@H](C)/C=C/C=C/C=C/1C [everolimus]
drug combination with PB4188 (isobologram analysis) [1]: synergistic

CCOc1cc2ncc(C#N)c(Nc3ccc(OCc4ccccn4)c(Cl)c3)c2cc1NC(=O)/C=C/CN(C)C [neratinib]
drug combination with PB4188 (isobologram analysis) [1]: synergistic
